Literature values as cited in patent US20250381145A1, “COMBINATION OF SGLT2 INHIBITORS AND MINERALCORTICOID RECEPTOR MODULATORS FOR USE IN TREATMENT OF CARDIORENAL DISEASES” (ASTRAZENECA AB, priority 2022, published 2025).

SMILES | solubility (BCS characterisation)
CCOc1ccc(Cc2cc([C@@H]3O[C@H](CO)[C@@H](O)[C@H](O)[C@H]3O)ccc2Cl)cc1 [dapagliflozin] | high
CNC(=O)C[C@H]1COc2cc(F)ccc2N1C(=O)c1ccc2c(c1)NC(=O)CO2 [AZD9977, balcinrenone] | low
